Patent US9273057B2 (Bristol-Myers Squibb Company, priority 2012, dated 2016)
Where a name gives a salt, the structure may show the parent alone.

Target: CK2A1 (CK2α/β) (Homo sapiens, UniProt P68400)
Experiment: CK2 kinase assay, CK2A1 (CK2α/β)
Format: biochemical
Details: Table A; read-out: CK2A1 (CK2α/β) (IC50)

CK2A1 (CK2α/β), sequence (P68400 whole entry, species assumed): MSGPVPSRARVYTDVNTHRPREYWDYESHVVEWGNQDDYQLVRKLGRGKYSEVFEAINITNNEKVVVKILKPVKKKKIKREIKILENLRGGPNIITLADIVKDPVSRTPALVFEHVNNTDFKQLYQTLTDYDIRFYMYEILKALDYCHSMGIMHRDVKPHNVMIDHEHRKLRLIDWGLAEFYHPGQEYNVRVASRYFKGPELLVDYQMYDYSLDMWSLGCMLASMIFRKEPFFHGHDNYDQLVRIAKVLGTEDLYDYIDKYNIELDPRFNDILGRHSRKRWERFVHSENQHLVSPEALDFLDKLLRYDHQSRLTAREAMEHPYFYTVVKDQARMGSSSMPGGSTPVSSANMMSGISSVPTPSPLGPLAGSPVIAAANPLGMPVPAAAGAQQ
CK2A1 (CK2α/β), sequence (P67870 whole entry partner, species assumed): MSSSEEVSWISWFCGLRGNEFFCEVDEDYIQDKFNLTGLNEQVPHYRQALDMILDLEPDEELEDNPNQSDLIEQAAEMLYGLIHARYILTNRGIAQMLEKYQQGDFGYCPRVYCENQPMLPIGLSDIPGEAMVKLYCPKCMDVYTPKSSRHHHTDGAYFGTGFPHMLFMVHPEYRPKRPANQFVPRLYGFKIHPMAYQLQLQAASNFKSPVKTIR

**Q.** Which IC50 does the source give for `COC(=O)N[C@H]1CCN(c2cc(C#N)cc(Nc3nc(NC4CC4)c4ncc(C#N)n4n3)c2Cl)C[C@@H]1NCC(F)F` [Example 748, methyl ((3S,4S)-1-(2-chloro-5-cyano-3-((7-cyano-4-(cyclopropylamino)imidazo[2,1-f][1,2,4]triazin-2-yl)amino)phenyl)-3-((2,2-difluoroethyl)amino)piperidin-4-yl)carbamate] here?
**A.** Its IC50 is 1.4 nM.

**Q.** For `N#Cc1cnc2c(NC3CC3)nc(Nc3cc(C(F)F)cc(N4CCOCC4)c3Cl)nn12` [Example 275, 2-((2-chloro-5-(difluoromethyl)-3-(4-morpholinyl)phenyl)amino)-4-(cyclopropylamino)imidazo[2,1-f][1,2,4]triazine-7-carbonitrile], which IC50 is on record?
**A.** Its IC50 is 3.36 nM.

**Q.** How did the IC50 turn out when `N#Cc1cc(Nc2nc(NC3CC3)c3ncc(C#N)n3n2)c(Cl)c(C2CCN(C3CCC3O)CC2)c1` (single isomer, unassigned) [Example 645, Cis and trans 2-((2-chloro-5-cyano-3-(1-(2-hydroxycyclobutyl)piperidin-4-yl)phenyl)amino)-4-(cyclopropylamino)imidazo[2,1-f][1,2,4]triazine-7-carbonitrile] was run?
**A.** The IC50 was 1.75 nM.

**Q.** With `N#Cc1cc(Nc2nc(NC3CC3)c3ncc(C#N)n3n2)c(Cl)c(N2CCN(C(=O)CO)CC2)c1` [Example 78, 2-(2-chloro-5-cyano-3-(4-(2-hydroxyacetyl)piperazin-1-yl)phenylamino)-4-(cyclopropylamino) imidazo[1,2-f][1,2,4] triazine-7-carbonitrile] as the compound, how does the IC50 read?
**A.** The IC50 was 0.41 nM.

**Q.** `N#Cc1cc(Nc2nc(NC3CC3)c3ncc(C#N)n3n2)c(Cl)c(N2CCN(C3CN(CC(O)CF)C3)CC2)c1` (stereo not drawn) [Example 614, 2-[(2-chloro-5-cyano-3-{4-[1-(3-fluoro-2-hydroxypropyl)azetidin-3-yl]piperazin-1-yl}phenyl)amino]-4-(cyclopropylamino)imidazo [2,1-f][1,2,4]triazine-7-carbonitrile] was tested. Which IC50 did it give?
**A.** The IC50 was 2.5 nM.

**Q.** `CC(CCNCCC(F)(F)F)c1cc(C#N)cc(Nc2nc(NC3CC3)c3ncc(C#N)n3n2)c1Cl` (stereo not drawn) [Example 576, 2-((2-chloro-5-cyano-3-(4-((3,3,3-trifluoropropyl)amino)butan-2-yl)phenyl)amino)-4-(cyclopropylamino)imidazo[2,1-f][1,2,4]triazine-7-carbonitrile] was tested. Which IC50 did it give?
**A.** Its IC50 is 1.59 nM.

**Q.** For `N#Cc1cc(CNC2CCOCC2)c(Cl)c(Nc2nc(NC3CC3)c3ncc(C#N)n3n2)c1` [Example 664, 2-((2-chloro-5-cyano-3-(((tetrahydro-2H-pyran-4-yl)amino)methyl)phenyl)amino)-4-(cyclopropylamino)imidazo[2,1-f][1,2,4]triazine-7-carbonitrile], which IC50 is on record?
**A.** Its IC50 is 0.98 nM.

**Q.** How did the IC50 turn out when `N#Cc1cc(Nc2nc(NC3CC3)c3ncc(C#N)n3n2)c(Cl)c(C(O)C2CCN(C3COC3)CC2)c1` (stereo not drawn) [Example 655, 2-((2-chloro-5-cyano-3-(hydroxy(1-(oxetan-3-yl)piperidin-4-yl)methyl)phenyl)amino)-4-(cyclopropylamino)imidazo[2,1-f][1,2,4]triazine-7-carbonitrile] was run?
**A.** The IC50 was 2.82 nM.

**Q.** `N#Cc1cc(Nc2nc(NC3CC3)c3ncc(C#N)n3n2)c(Cl)c(N2CCN([C@@H]3COC[C@H]3O)CC2)c1` (racemic) [Example 59, (+/−) 2-((2-chloro-5-cyano-3-(4-((3R,4S)-4-hydroxytetrahydro-3-furanyl)-1-piperazinyl)phenyl)amino)-4-(cyclopropylamino) imidazo[2,1-f][1,2,4] triazine-7-carbonitrile] was tested. Which IC50 did it give?
**A.** The IC50 was 0.59 nM.

**Q.** How did the IC50 turn out when `COCCN(C)Cc1cc(C#N)cc(Nc2nc(NC3CC3)c3ncc(C#N)n3n2)c1Cl` [Example 475, 2-[(2-chloro-5-cyano-3-{[(2-methoxyethyl)(methyl)amino]methyl}phenyl)amino]-4-(cyclopropylamino)imidazo[2,1-f][1,2,4]triazine-7-carbonitrile] was run?
**A.** Its IC50 is 1.78 nM.

**Q.** Which IC50 does the source give for `CC(C)(O)C(=O)N1CCN(c2cc(C#N)cc(Nc3nc(NC4CC4)c4ncc(C#N)n4n3)c2Cl)CC1` [Example 79, 2-((2-chloro-5-cyano-3-(4-(2-hydroxy-2-methylpropanoyl)-1-piperazinyl)phenyl)amino)-4-(cyclopropylamino) imidazo[2,1-f][1,2,4] triazine-7-carbonitrile] here?
**A.** Its IC50 is 0.53 nM.

**Q.** For `CCNc1nc(Nc2cc(C#N)cc(N3CC[C@@H](NC(=O)OC)[C@H](OC(=O)CCCOP(=O)(O)O)C3)c2Cl)nn2c(C#N)cnc12` [Example 343, (3R,4R)-1-(2-chloro-5-cyano-3-((7-cyano-4-(ethylamino)imidazo[2,1-f][1,2,4]triazin-2-yl)amino)phenyl)-4-((methoxycarbonyl)amino)piperidin-3-yl 4-(phosphonooxy)butanoate], which IC50 is on record?
**A.** Its IC50 is 3 nM.

**Q.** With `N#Cc1cc(Nc2nc(NC3CC3)c3ncc(C#N)n3n2)c(OCCN2CCOCC2)cc1OCCN1CCOCC1` [Example 422, 2-((5-cyano-2,4-bis(2-morpholinoethoxy)phenyl)amino)-4-(cyclopropylamino)imidazo[2,1-f][1,2,4]triazine-7-carbonitrile] as the compound, how does the IC50 read?
**A.** The IC50 was 2.73 nM.

**Q.** How did the IC50 turn out when `COC(=O)N[C@@H]1CN(c2cc(C#N)cc(Nc3nc(NC4CC4)c4ncc(C#N)n4n3)c2Cl)C[C@H]1O` (racemic) [Example 9, (+/−) methyl ((3R,4R)-1-(2-chloro-5-cyano-3-((7-cyano-4-(cyclopropylamino)imidazo [2,1-f][1,2,4]triazin-2-yl)amino)phenyl)-4-hydroxy-3-pyrrolidinyl)carbamate] was run?
**A.** Its IC50 is 0.66 nM.

**Q.** Which IC50 does the source give for `CCNc1nc(-n2cc([C@H]3C[C@@H]3CN(C)C)c3ccc(C#N)cc32)nn2c(C#N)cnc12` (single isomer, unassigned) [Example 774] here?
**A.** The IC50 was 4.05 nM.

**Q.** With `N#Cc1cc(Nc2nc(NC3CC3)c3ncc(C#N)n3n2)c(Cl)c(C2CN(C3COC3)C2)c1` [Example 358, 2-((2-chloro-5-cyano-3-(1-(oxetan-3-yl)azetidin-3-yl)phenyl)amino)-4-(cyclopropylamino)imidazo[2,1-f][1,2,4]triazine-7-carbonitrile] as the compound, how does the IC50 read?
**A.** Its IC50 is 0.87 nM.

**Q.** `CCNc1nc(Nc2ccc3c(c2)c(C#N)cn3C2CCN(C3CN(C(C)=O)C3)CC2)nn2c(C#N)cnc12` [Example 837, 2-((1-(1-(1-acetylazetidin-3-yl)piperidin-4-yl)-3-cyano-1H-indol-5-yl)amino)-4-(ethylamino)imidazo[2,1-f][1,2,4]triazine-7-carbonitrile] was tested. Which IC50 did it give?
**A.** Its IC50 is 2.42 nM.

**Q.** How did the IC50 turn out when `CNCCOC(=O)N1CCN(c2cc(C#N)cc(Nc3nc(NC4CC4)c4ncc(C#N)n4n3)c2Cl)CC1` [Example 71, 2-(methylamino)ethyl 4-(2-chloro-5-cyano-3-((7-cyano-4-(cyclopropylamino)imidazo[2,1-f] [1,2,4]triazin-2-yl)amino)phenyl)-1-piperazinecarboxylate] was run?
**A.** Its IC50 is 0.76 nM.

**Q.** With `CCNc1nc(Nc2cc(C#N)cc(N3CC[C@@H](NC(=O)OC)[C@H](OC(=O)[C@@H](NC(=O)[C@@H](N)CCCNC(=N)N)C(C)C)C3)c2Cl)nn2c(C#N)cnc12` [Example 823, (S)-(3R,4R)-1-(2-chloro-5-cyano-3-((7-cyano-4-(ethylamino)imidazo[2,1-f][1,2,4]triazin-2-yl)amino)phenyl)-4-((methoxycarbonyl)amino)piperidin-3-yl 2-((S)-2-amino-5-guanidinopentanamide)-3-methylbutanoate trihydrochloride] as the compound, how does the IC50 read?
**A.** Its IC50 is 2 nM.

**Q.** `N#Cc1cc(Nc2nc(NC3CC3)c3ncc(C#N)n3n2)c(F)c(N2CCN([C@@H]3CS(=O)(=O)C[C@H]3O)CC2)c1` (racemic) [Example 553, rac-2-((5-cyano-2-fluoro-3-(4-((3R,4R)-4-hydroxy-1,1-dioxidotetrahydrothiophen-3-yl)piperazin-1-yl)phenyl)amino)-4-(cyclopropylamino)imidazo[2,1-f][1,2,4]triazine-7-carbonitrile] was tested. Which IC50 did it give?
**A.** The IC50 was 5.55 nM.

**Q.** How did the IC50 turn out when `COC(=O)N[C@H]1C[C@@H](O)CN(c2cc(C#N)cc(Nc3nc(NC4CC4)c4ncc(C#N)n4n3)c2Cl)C1` [Example 295, methyl ((3S,5R)-1-(2-chloro-5-cyano-3-((7-cyano-4-(cyclopropylamino)imidazo[2,1-f][1,2,4]triazin-2-yl)amino)phenyl)-5-hydroxy-3-piperidinyl)carbamate] was run?
**A.** The IC50 was 1.21 nM.

**Q.** For `CN1CCN(c2cc(C#N)cc(Nc3nc(NC4CC4)c4ncc(C#N)n4n3)c2Cl)CC1CN1CC(F)C1` (stereo not drawn) [Example 708, 2-[(2-chloro-5-cyano-3-{3-[(3-fluoroazetidin-1-yl)methyl]-4-methylpiperazin-1-yl}phenyl)amino]-4-(cyclopropylamino)imidazo[2,1-f][1,2,4]triazine-7-carbonitrile], which IC50 is on record?
**A.** Its IC50 is 0.52 nM.

**Q.** For `Cn1cnc2cc(Nc3nc(NC4CC4)c4ncc(C#N)n4n3)ccc21` [Example 3, 4-(cyclopropylamino)-2-((1-methyl-1H-benzimidazol-5-yl)amino)imidazo[2,1-f][1,2,4]triazine-7-carbonitrile], which IC50 is on record?
**A.** The IC50 was 0.42 nM.

**Q.** `N#Cc1cc(Nc2nc(NC3CC3)c3ncc(C#N)n3n2)c(Cl)c(C(O)C2CN(C3COC3)C2)c1` (stereo not drawn) [Example 656, 2-((2-chloro-5-cyano-3-(hydroxy(1-(oxetan-3-yl)azetidin-3-yl)methyl)phenyl)amino)-4-(cyclopropylamino)imidazo[2,1-f][1,2,4]triazine-7-carbonitrile] was tested. Which IC50 did it give?
**A.** The IC50 was 6.73 nM.

**Q.** For `N#Cc1cc(Nc2nc(NC3CC3)c3ncc(C#N)n3n2)c(Cl)c(N2CC[C@@H]3[C@@H](CCN3[C@H]3CS(=O)(=O)C[C@@H]3O)C2)c1` [Example 452, 2-((2-chloro-5-cyano-3-(1-((3R,4R)-4-hydroxy-1,1-dioxidotetrahydrothiophen-3-yl)hexahydro-1H-pyrrolo[3,2-c]pyridin-5(6H)-yl)phenyl)amino)-4-(cyclopropylamino)imidazo[2,1-f][1,2,4]triazine-7-carbonitrile], which IC50 is on record?
**A.** Its IC50 is 0.82 nM.

**Q.** For `N#Cc1cc(CN2CCC(O)CC2)c(Cl)c(Nc2nc(NC3CC3)c3ncc(C#N)n3n2)c1` [Example 672, 2-((2-chloro-5-cyano-3-((4-hydroxypiperidin-1-yl)methyl)phenyl)amino)-4-(cyclopropylamino)imidazo[2,1-f][1,2,4]triazine-7-carbonitrile], which IC50 is on record?
**A.** Its IC50 is 0.62 nM.

**Q.** For `[2H]C1(N2CCC(c3cc(C#N)cc(Nc4nc(NCC)c5ncc(C#N)n5n4)c3Cl)CC2)COC1` [Example 350, 2-((2-chloro-5-cyano-3-(1-(3-~2~H)-3-oxetanyl-4-piperidinyl)phenyl)amino)-4-(ethylamino)imidazo[2,1-f][1,2,4]triazine-7-carbonitrile], which IC50 is on record?
**A.** Its IC50 is 1.74 nM.
